Measurements taken from patent US20050272098A1, “Quantitation of endothelial microparticles” (priority 2004, published 2005).
“And” between values parts separate entries of the source, which are not always exact repeats. Identical values can stand only once.

What was measured:
HCAEC = assay: Release of CAM-specific EMP from TNF-α-activated HCAEC, two-color flow cytometry with TruCount beads; format: cell-based, human; conditions: 24 hours
Experimental: HCAECs were purchased from Cambrex Bio Science (Walkersville, Md.) and cultured according to the supplier's specifications. All experiments were performed on confluent cells. EC were treated with 10 ng/mL TNF-α alone or with the addition of fluvatstain (0.1 μmol/mL) or ROK inhibitor, Y-27632 (10 μmol M/L). Controls were un-treated. After 24 hours culture supernatants from flasks containing HCAEC were collected and centrifuged for 30 min at 17,570×g, (4° C.). Pellets were re-suspended in 1 mL of PBS and were analyzed on the same day. For single platform method, 3 μL each of FITC-conjugated and PE-conjugated monoclonal antibodies against the above mentioned CAMs plus 50 μL of re-suspended pellet were added to tubes (two antibodies/tube) preloaded with fluorescent TruCount™ bead lyophilized pellets (Becton Dickinson Biosciences, San Jose, Calif.). Tubes were incubated for 20 min at room temperature. Analysis of EMPs was performed using a FACScan Flow Cytometer (Becton Dickinson Biosciences, San Jose, Calif.). The EMPs were excited with 488 nm light from a 15 mW argon laser. Logarithmic green and red fluorescences of FITC and PE were measured through 530/30 nm and 585/42 nm bandpass filters, respectively. Data from 2,000 events were acquired and analyzed with the use of CELLQuest™ software (version 3.3, Becton Dickinson). The absolute number of EMPs was calculated from the appropriate dot plot values entered into the following formula: [formula] The total number of beads per tube is supplied by the manufacturer and varies among lot numbers. RhoA Activity Statistical analysis was performed using SPSS 10.0.7 statistical software (SPSS Inc., Chicago, Ill.). Values are stated as mean±SEM. One-way ANOVA was used to compare means from three or more groups. In cases where the data were not normally distributed, the Mann-Whitney rank sum test was used. A value of p<0.05 was considered as significant for all tests.

RhoA = RhoA activity pull-down assay (Rhotekin Rho Binding Domain agarose, western blot) in HCAEC; format: cell-based, human; conditions: TNF-α 10 ng/mL, 24 hours
Experimental: HCAECs were purchased from Cambrex Bio Science (Walkersville, Md.) and cultured according to the supplier's specifications. All experiments were performed on confluent cells. EC were treated with 10 ng/mL TNF-α alone or with the addition of fluvatstain (0.1 μmol/mL) or ROK inhibitor, Y-27632 (10 μmol M/L). Controls were un-treated. After 24 hours culture supernatants from flasks containing HCAEC were collected and centrifuged for 30 min at 17,570×g, (4° C.). Pellets were re-suspended in 1 mL of PBS and were analyzed on the same day. RhoA activity was determined by a pull-down assay. The cell lysates were incubated with Rhotekin Rho Binding Domain agarose for 45 minutes. The agarose beads were collected and electrophoresed in 8-16% SDS-PAGE gel (Cambrex, Rockland, Me.). GDP and GTP-labeling of cell lysates served as negative and positive controls, respectively. Western blotting was performed with RhoA antibody at a dilution of 1:200. The blot densities were analyzed with Mocha Image Analysis (version 1.2.10).

[1] = HCAEC, TNF-α 10 ng/mL plus Y-27632 (10 μmol M/L), mean ± SEM
[2] = HCAEC, TNF-α 10 ng/mL plus Fluvastatin 0.1 μM/L, mean ± SEM
[3] = HCAEC, TNF-α 10 ng/mL plus Fluvastatin 0.1 μM/L, mean ± SEM, listed as Flu
[4] = HCAEC, TNF-α 10 ng/mL alone, mean ± SEM, six experiments
[5] = HCAEC, TNF-α 10 ng/mL, versus control, not significant

Question: C[C@@H](N)[C@H]1CC[C@H](C(=O)Nc2ccncc2)CC1 [Y-27632] was tested. Which “absolute count of EMP, CD51 (Vitronectin)” value (“absolute count of EMP, CD51” for short) (HCAEC; [1]) did it give?
Answer: The value was 44 ± 10 ×10^6/mL.

Question: What about the “absolute count of EMP, CD62E (ELAM)” value (HCAEC; [1]) of the same compound?
Answer: The value was 65 ± 13 ×10^6/mL.

Question: And the “absolute count of EMP, CD105 (Endoglin)” value (HCAEC; [1])?
Answer: Its value is 56±13 ×10^6/mL.

Question: With CC(C)n1c(/C=C/C(O)CC(O)CC(=O)O)c(-c2ccc(F)cc2)c2ccccc21 (centres unmarked) [Fluvastatin] as the compound, how does the “absolute count of EMP, CD51” value (HCAEC; [2]) read?
Answer: Its value is 43 ±7.3 ×10^6/mL.

Question: What about the “absolute count of EMP, CD62E (ELAM)” value (HCAEC; [2]) of the same compound?
Answer: The value was 80 ± 7 ×10^6/mL.

Question: And the “absolute count of EMP, CD105 (Endoglin)” value (HCAEC; [2])?
Answer: Its value is 45±7.6 ×10^6/mL.

Question: And the “absolute count of EMP, CD31 (PECAM-1)” value (HCAEC; [3])?
Answer: The value was 231 ± 80 ×10^6/mL.

Question: And the “absolute count of EMP, CD51” value (HCAEC; [3])?
Answer: Its value is 43 ± 7 ×10^6/mL.

Question: And the “absolute count of EMP, CD 54 (ICAM-1)” value (HCAEC; [3])?
Answer: The value was 125 ± 35 ×10^6/mL.

Question: What about the “absolute count of EMP, CD105 (Endoglin)” value (HCAEC; [3]) of the same compound?
Answer: Its value is 45 ± 8 ×10^6/mL.

Question: What about the “absolute count of EMP, CD106 (VCAM-1)” value (HCAEC; [3]) of the same compound?
Answer: Its value is 167 ± 45 ×10^6/mL.

Question: What about the “suppression of CD62+ EMP” value (HCAEC; TNF-α-activated HCAEC, versus TNF-α alone, not statistically significant) of the same compound?
Answer: The value was 19%.

Question: tumor necrosis factor-α [TNF-α] was tested. Which RhoA activation (RhoA) did it give?
Answer: The RhoA activation was “induced”.

Question: What about the “absolute count of EMP, CD31 (PECAM-1)” value (HCAEC; [4]) of the same compound?
Answer: The value was 233±77 ×10^6/mL.

Question: What about the “absolute count of EMP, CD51” value (HCAEC; [4]) of the same compound?
Answer: The value was 76.4±46 ×10^6/mL and 76 ± 46 ×10^6/mL.

Question: And the “absolute count of EMP, CD 54 (ICAM-1)” value (HCAEC; [4])?
Answer: Its value is 129 ± 44 ×10^6/mL.

Question: What about the “absolute count of EMP, CD62E (ELAM)” value (HCAEC; [4]) of the same compound?
Answer: The value was 99 ± 3 ×10^6/mL.

Question: And the “absolute count of EMP, CD105 (Endoglin)” value (HCAEC; [4])?
Answer: The value was 124±34 ×10^6/mL.

Question: And the “increase of CD54 positive EMP” value (HCAEC; [5])?
Answer: The value was 57%.

Question: And the “increase of CD62 positive EMP” value (HCAEC; [5])?
Answer: Its value is 15%.
